Source: patent US20220168295A1, “RIMEGEPANT FOR CGRP RELATED DISORDERS” (Biohaven Pharmaceutical Ireland DAC, priority 2018, published 2022)

Tests used:
[1] = tested on: subjects with Acute Migraines; assay: Study 302 (BHV3000-302) Phase 3 placebo-controlled trial, rimegepant 75 mg tablet, acute treatment of migraine: efficacy and safety; assay type: in vivo, human
Experimental: Clinical Trial—BHV3000-302: Phase 3: Double-Blind, Randomized, Placebo-Controlled, Safety and Efficacy Trial of BHV-3000 (Rimegepant) for the Acute Treatment of Migraine (ClinicalTrials.gov Identifier: NCT03237845) A phase 3 clinical study was conducted with 1503 participants, as follows. The purpose of this study is to compare the efficacy of BHV-3000 (rimegepant) versus placebo in subjects with Acute Migraines • Study Type: Interventional (Clinical Trial) • Actual Enrollment: 1503 participants • Allocation: Randomized • Intervention Model: Parallel Assignment • Intervention Model Description: Double-blind to Sponsor, Investigator and Subject • Masking: Triple (Participant, Care Provider, Investigator) • Masking Description: Double-blind to Sponsor, Investigator and Subject • Primary Purpose: Treatment • Official Title: BHV3000-302: Phase 3: Double-Blind, Randomized, Placebo-Controlled, Safety and Efficacy Trial of BHV-3000 (Rimegepant) for the Acute Treatment of Migraine • Actual Study Start Date: Jul. 26, 2017 • Primary Completion Date: Jan. 25, 2018 • Study Completion Date: Jan. 31, 2018 [table] • 1. Pain Freedom of rimegepant (75 mg tablet) compared with placebo in the acute treatment of migraine will be measured using the number of evaluable subjects that report no pain at 2 hours post-dose. [Time Frame: Two hours post dose] • Pain will be measured on a 4 point Likert scale (0=none, 1=mild, 2=moderate, 3=severe) • 2. Freedom from the most bothersome symptom (MBS) of rimegepant (75 mg tablet) compared with placebo will be measured using the number of evaluable subjects that report the absence of their MBS at 2 hours post-dose. [Time Frame: Two hours post dose] • The MBS (nausea, phonophobia or photophobia) will measured using a binary scale (0=absent, 1=present). • 1. […] [Time Frame: 2 hours −24 hours post-dose] • Sustained Pain Freedom as measured by a 4 point numeric rating scale (None, Mild, Moderate, Severe) • 2. Rimegepant (75 mg tablet) compared to placebo by tabulating the number of subjects that report the absence of photophobia at 2 hours post-dose in the subset of subjects that reported the presence of photophobia at headache baseline. [Time Frame: 2 hours post-dose] • Freedom from Photophobia • 3. Rimegepant (75 mg tablet) compared to placebo by tabulating the number of subjects that report the absence of phonophobia at 2 hours post-dose in the subset of subjects that reported the presence of phonophobia at headache baseline. [Time Frame: 2 hours post-dose] • Freedom from Phonophobia • 4. To measure rimegepant (75 mg tablet) compared to placebo on Pain Relief, at 2 hours post-dose, that report a pain level of moderate or severe at baseline and then report a pain level of none or mild. [Time Frame: 2 hours post-dose] • Pain Relief as measured by a 4 point numeric rating scale (None, Mild, Moderate, Severe) • 5. Freedom from Nausea will by tabulating the number of subjects that report the absence of nausea at 2 hours post-dose in the subset of subjects that reported the presence of nausea at headache baseline. [Time Frame: 2 hours post-dose] • Freedom from Nausea • 6. To measure rimegepant (75 mg tablet) compared to placebo on the probability of requiring rescue medication will be assessed using the number of subjects that take rescue medication within […] administration of study medication (BHV3000 or placebo). [Time Frame: up to 24 hours post-dose] • Requiring Rescue Medication • 7. […] [Time Frame: 2 hours-48 hours post-dose] • Sustained Pain Freedom as measured by a 4 point numeric rating scale (None, Mild, Moderate, Severe) • 8. […] [Time Frame: 2 hours-24 hours post-dose] • Sustained Pain Relief as measured by a 4 point numeric rating scale (None, Mild, Moderate, Severe) • 9. […] [Time Frame: 2 hours-48 hours post-dose] • Sustained Pain Relief as measured by a 4 point numeric rating scale (None, Mild, Moderate, Severe) • 10. […]

[2] = Pooled adverse event and LFT safety data, Studies 301, 302 and 303; assay type: in vivo, human; set-up: ALT or AST >10x ULN / ALT or AST >20x ULN: unit not given here; settings: pooled Studies 301, 302 and 303, n = 1,771

**Q.** What does the source list for N[C@@H]1c2cccnc2[C@H](OC(=O)N2CCC(n3c(=O)[nH]c4ncccc43)CC2)CC[C@H]1c1cccc(F)c1F [Rimegepant, [(5S,6S,9R)-5-amino-6-(2,3-difluorophenyl)-6,7,8,9-tetrahydro-5H-cyclohepta[b]pyridin-9-yl] 4-(2-oxo-3H-imidazo[4,5-b]pyridin-1-yl)piperidine-1-carboxylate]?
**A.** SAEs related to the study drug [1]: No SAEs were determined to be related to the study drug; Transaminase level greater than 3 times ULN, subjects [1]: No subject; Adverse event urinary tract infection, incidence ([1]; 8/543): 1.5%; Adverse event nausea, incidence ([1]; 10/543): 1.8%; Serum ALT or AST levels greater than ULN, subjects ([1]; 13/543): 2.4%; Proportion of patients achieving normal function at 2 hours (functional disability) versus placebo ([1]; P<0.0001): greater proportion; Serious AEs (SAEs), number of subjects ([1]; back pain): 1 subject; ALT or AST >3x ULN, n (%) [2]: 2 (0.1%) n (%); ALT or AST >10x ULN [2]: 0; ALT or AST >20x ULN [2]: 0; ALT or AST >ULN, n (%) [2]: 48 (2.7%) n (%); ALT or AST >5x ULN, n (%) ([2]; AST elevation, not drug-related per investigator): 1 (0.06%) ^2 n (%)
